Experimental data: patent US5932709A (University of Michigan, priority 1997, dated 1999)
≈ marks a conversion by molar mass, not a printed value.

Tests used:
Format in all cases: cell-based
[1] = system: HT-29 human colon adenocarcinoma cells; test: MTT growth inhibition, HT-29; settings: 144 h, HT-29, MTT, 6 days, read-out: Growth Inhibitory Activity IC50
Procedure: (§1) Camptothecin was used as a control to test the anti-cancer efficacy of the novel camptothecin analogs of the present invention.
(§2) Murine B16 melanoma cell line was grown in RPMI 1640 medium supplemented with 10% heat-inactivated fetal bovine serum, 2 mM L-glutamine, 50 units/mL penicillin, 50 μg/mL streptomycin, 25 μg/mL gentamicin, 0.75% sodium bicarbonate 10 mM HEPES buffer (pH 7.4), and 0.06 mg/mL AntiPPLO. Murine P388 leukemic cell line and human HT-29 colon adenocarcinoma line were maintained in RPMI 1640 medium supplemented with 10% heat-inactivated fetal bovine serum. […] MCF-7M human breast adenocarcinoma was maintained in IMEM supplemented with 5% non heat-inactivated fetal bovine serum and 1 nM insulin.
(§3) [See "Rapid Colorimetric Assay For Cellular Growth And Survival: Application To Proliferation And Cytotoxicity Assays," J. Immun. Meth. 65:55 (1983)]. The assay utilizes a tetrazolium salt to quantitatively measure mammalian cell survival and proliferation by colorimetric methods. In particular, MTT, a pale yellow compound with minimal absorbance, is incubated with cancerous cells in addition to (or in the absence of) a particular camptothecin analog. Living cells with active mitochondrial enzymes metabolize the MTT into a dark blue/purple formazan product with high absorbance. The exact procedure used to test the camptothecin analogs of the present invention is described below.
(§4) Exponentially growing cells (1-2×10^3 cells, unless specified otherwise) in 0.1 mL medium were seeded on day 0 in a 96-well microtiter plate. On day 1, 0.1 mL aliquots of medium containing graded concentrations of test analogs were added to the cell plates. After incubation at 37° C. in a humidified incubator for 3 days (P388, P388/CPT, B16) or 6 days (HT-29, MCF-7M), the plates were centrifuged briefly and 100 μL of the growth medium was removed. Cell cultures were incubated with 50 μL of 3-(4,5-dimethylthiazol-2-yl)-2,5-diphenyl-tetrazolium bromide [MTT, 1 mg/mL in Dulbecco's phosphate buffered saline (PBS)] for 4 hr at 37° C. The resulting purple formazan precipitate was solubilized with 200 μL of 0.04 N HCl in isopropyl alcohol. Absorbance was monitored in a BioRad Model 3550 Microplate Reader at a test wavelength of 570 nm and a reference wavelength of 630 nm. The absorbance is transferred to a PC 486 computer. The IC50 values were determined by a computer program (EZ-ED50) that fits all of the data to the following four-parameter logistic equation:
(§5) Y=(Amax -Amin)/(1+[X/IC^50 ])^n +Amin
(§6) where Amax is the absorbance of control cells, Amin is the absorbance of cells in the presence of highest agent concentration, IC^50 is the concentration of agent that inhibits the cell growth by 50% of control cells (based on the absorbance) and n is the slope of the curve.

[2] = system: MCF-7 human breast tumor cells; test: MTT growth inhibition, MCF-7; settings: MCF7, 144 h, MCF-7, MTT, 6 days, read-out: Growth Inhibitory Activity IC50
Procedure: as §1, §2, §3, §4, §5, §6

[3] = system: B16 murine melanoma cells; test: MTT growth inhibition, B16; settings: Mus musculus, 72 h, 3 days, read-out: Growth Inhibitory Activity IC50
Procedure: as §1, §2, §3, §4, §5, §6

tumor cells = test: MTT growth inhibition across tumor cell lines (P388, P388/CPT, B16, HT-29, MCF-7M); settings: for growth inhibitory activity: comparison in words
Procedure: as §3
as §4, with “equation: […]” for “equation:”

SMILES	IC50 [1]	IC50 [2]	IC50 [3]	growth inhibitory activity (tumor cells)	potency in inhibiting growth of tumor cells (tumor cells; more potent than HAR7)
CC[C@@]1(O)C(=O)OCc2c1cc1n(c2=O)Cc2c-1nc1ccccc1c2CO[C@@H]1C=C[C@H](OC(C)=O)[C@@H](COC(C)=O)O1 [HAR4, 7-[4,6-di-O-acetyl-2,3-dideoxy-α-D-erythro-hex-2-enopyranosyl]oxymethylcamptothecin]	0.011 µg/mL (≈ 0.0186 µM)	0.0027 µg/mL (≈ 0.00457 µM)	0.026 µg/mL (≈ 0.044 µM)	quite similar to those of camptothecin	2-3 fold
CC[C@@]1(O)C(=O)OCc2c1cc1n(c2=O)Cc2c-1nc1ccccc1c2CO[C@@H]1C=C[C@H](O[C@H]2O[C@H](CO)[C@@H](O)[C@H](O)[C@H]2O)[C@@H](CO)O1 [HAR6, 7-[4-O-(α-D-glucopyranosyl)-2,3-dideoxy-α-D-erythro-hex-2-enopyranosyl]-oxymethylcamptothecin]	0.476 µg/mL (≈ 0.712 µM)	0.111 µg/mL (≈ 0.166 µM)	2.43 µg/mL (≈ 3.63 µM)	–	–
CC[C@@]1(O)C(=O)OCc2c1cc1n(c2=O)Cc2c-1nc1ccccc1c2CO[C@@H]1C=C[C@H](O[C@H]2O[C@H](COC(C)=O)[C@@H](OC(C)=O)[C@H](OC(C)=O)[C@H]2OC(C)=O)[C@@H](COC(C)=O)O1 [HAR5, 7-[6-O-acetyl-4-O-(2,3,4,6-tetra-O-acetyl-α-D-glucopyranosyl)-2,3-dideoxy-α-D-erythro-hex-2-enopyranosyl]oxymethylcamptothecin]	0.105 µg/mL (≈ 0.119 µM)	0.01 µg/mL (≈ 0.0114 µM)	0.43 µg/mL (≈ 0.489 µM)	more cytotoxic than camptothecin hydroxyl maltal (HAR6)	–
CC[C@@]1(O)C(=O)OCc2c1cc1n(c2=O)Cc2c-1nc1ccccc1c2CO[C@@H]1C=C[C@H](O)[C@@H](CO)O1 [HAR7, 7-[2,3-dideoxy-α-D-erythro-hex-2-enopyranosyl]-oxymethylcamptothecin]	0.031 µg/mL (≈ 0.0612 µM)	0.0064 µg/mL (≈ 0.0126 µM)	0.173 µg/mL (≈ 0.342 µM)	quite similar to those of camptothecin	–
